Experimental data: patent publication US12171230B2, “Herbicidal compositions” (Bayer Aktiengesellschaft, priority 2018, dated 2024)
Values joined by “and” are separate entries in the source; they are usually repeats but may differ in a detail not shown here. Identical values can stand only once.

Tests used:
Assay type in all cases: in vivo
[1] = test system: Bromus sterilis; assay: Post-emergence herbicidal action against Bromus sterilis
Procedure, shortened: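 Rates are given as grams of active ingredient (100% active compound) per hectare. E^A is the summed effect of the individual applications and E^C the expected value by Colby, with ratings timed in days after application (DAT).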

[2] = test system: Veronica hederifolia; assay: Post-emergence herbicidal action against Veronica hederifolia
[3] = test system: Bellis perenne; assay: Post-emergence herbicidal action against Bellis perenne; conditions: 100 g of a.i./ha
Procedure: (§1) When the observed efficacies exceed the formal sum total of the values of the tests with individual applications, they also exceed the expected value according to Colby, which is calculated using the formula below and is likewise regarded as an indication of synergism (cf. S. R. Colby; in Weeds 15 (1967) p. 20 to 22): E^C=A+B−([…])
(§2) Here: • A=efficacy of the active compound (A) in % at an application rate of a g a.i./ha; • B=efficacy of the active compound (B) in % at an application rate of b g a.i./ha; • E^C=expected value of the effect of the combination (A)+(B) in % at the combined application rate a+b g a.i./ha.
Seeds or rhizome pieces of mono- and dicotyledonous weeds are placed in sandy loam in pots, covered with soil and grown in a greenhouse under good growth conditions (temperature, air humidity, water supply). Three weeks after sowing, the test plants were treated at the three-leaf stage with the compositions according to the invention. The compositions according to the invention formulated as spray powders or as emulsion concentrates were sprayed onto the green plant parts in various dosages with an application rate of 300 to 800 l/ha of water (equivalent). After the test plants have been left to stand in the greenhouse under optimal growth conditions for about 3 to 4 weeks, the action of the preparations is scored visually in comparison to untreated controls. […]

[4] = test system: Viola tricolor; assay: Post-emergence herbicidal action against Viola tricolor
[5] = test system: Poa annua; assay: Post-emergence herbicidal action against Poa annua
Procedure, shortened: (§3)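 Seeds or rhizome pieces were grown in sandy loam in pots in a greenhouse, and plants were sprayed at the three-leaf stage, three weeks after sowing. Spray powders or emulsion concentrates were applied in various dosages at 300 to 800 l/ha water. Efficacy was scored visually after 3 to 4 weeks against untreated controls.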

[6] = test system: Lolium rigidum; assay: Post-emergence herbicidal action against Lolium rigidum
[7] = test system: Phalaris minor; assay: Post-emergence herbicidal action against Phalaris minor
[8] = test system: Chenopodium album; assay: Post-emergence herbicidal action against Chenopodium album
Procedure: as §1, §2
(§4) Seeds or rhizome pieces of mono- and dicotyledonous weeds are placed in sandy loam in pots, covered with soil and grown in a greenhouse under good growth conditions (temperature, air humidity, water supply). Three weeks after sowing, the test plants were treated at the three-leaf stage with the compositions according to the invention. The compositions according to the invention formulated as spray powders or as emulsion concentrates were sprayed onto the green plant parts in various dosages with an application rate of 300 to 800 l/ha of water (equivalent). After the test plants have been left to stand in the greenhouse under optimal growth conditions for about 3 to 4 weeks, the action of the preparations is scored visually in comparison to untreated controls. The compositions according to the invention also have good post-emergence herbicidal activity against a broad spectrum of economically important gramineous and broadleaf weeds.

[9] = test system: Alopecurus myosuroides; assay: Post-emergence herbicidal action against Alopecurus myosuroides
[10] = test system: Pharbitis purpurea; assay: Post-emergence herbicidal action against Pharbitis purpurea; conditions: for Herbicidal action 21 DAT [%] against Pharbitis purpurea: post-emergence
Procedure, shortened: as §3

[11] = test system: Galium aparine; assay: Post-emergence herbicidal action against Galium aparine
Procedure, shortened: as §3

[12] = test system: Viola arvensis; assay: Post-emergence herbicidal action against Viola arvensis; conditions: 100 g of a.i./ha
Procedure: as §1, §2
as §4, with “After the test plants have been left to stand in the greenhouse under optimal growth conditions for about 3 to 4 weeks, the action of the preparations is scored visually in comparison to untreated controls.” left out

[13] = test system: Alopecurus myosuroides; assay: Post-emergence herbicidal action against Alopecurus myosuroides; remark: listed apart in the source
[14] = test system: Echinochloa crus-galli; assay: Post-emergence herbicidal action against Echinochloa crus-galli; conditions: 100 g a.i./ ha, post-emergence
Procedure, shortened: as §3

[15] = test system: Lolium rigidum; assay: Post-emergence herbicidal action against Lolium rigidum; remark: listed apart in the source
[16] = test system: Bromus sterilis; assay: Post-emergence herbicidal action against Bromus sterilis; conditions: 14 DAT; 1 g a.i./ha

In the case of `C=C[C@]1(C(=O)N[C@H]2CO[C@@H](C(=O)OC)C2)CC(c2cc(F)cc(F)c2)=NO1` (relative stereo) [Compound A3, methyl rel-(2R,4R)-4-[[(5S)-3-(3,5-difluorophenyl)-5-vinyl-4H-isoxazole-5-carbonyl]amino]tetrahydrofuran-2-carboxylate], the “Herbicidal action 14 DAT against Bromus sterilis” value ([1]; 1 g of a.i./ha) is reported as 15%, the “Herbicidal action 28 DAT against Bromus sterilis” value ([1]; 1 g of a.i./ha) is reported as 15% and the “Herbicidal action 14 DAT against Bromus sterilis” value ([1]; 4 g of a.i./ha) is reported as 85%. The “Herbicidal action in [%] 14 DAT against Bromus sterilis” value ([1]; 14 DAT, 1 g of a.i./ha) was 30%, the “Herbicidal action in [%] 28 DAT against Bromus sterilis” value ([1]; 1 g of a.i./ha) was 30% and the “Herbicidal action in [%] 28 DAT against Bromus sterilis” value ([1]; 4 g of a.i./ha) was 90%. For the same compound, the “Herbicidal action 28 DAT against Bromus sterilis” value ([1]; (Z61) post-emergence, g of a.i./ha: 1, 270, 90, 1 + 270, 1 + 90) was 15%, the “Herbicidal action against Veronica hederifolia” value ([2]; 14 DAT, 1 g of a.i./ha) was 30% and the “Herbicidal action against Veronica hederifolia” value ([2]; 14 DAT, 16 g of a.i./ha) was 40%. For the same compound, the “Herbicidal action against Veronica hederifolia” value ([2]; 28 DAT, 16 g of a.i./ha) was 50%, the “Herbicidal action 43 DAT [%] against Bellis perenne” value [3] was 0% and the “Herbicidal action in [%] 14 DAT against Viola tricolor” value ([4]; 1 g of a.i./ha) was 50%. The “Herbicidal action in [%] 28 DAT against Viola tricolor” value ([4]; 1 g of a.i./ha) was 15%, the “Herbicidal action in [%] 28 DAT against Viola tricolor” value ([4]; 4 g of a.i./ha) was 30% and the “Herbicidal action 28 DAT against Poa annua L.” value ([5]; 1 g of a.i./ha) was 15%. For the same compound, the “Herbicidal action in [%] 14 DAT against Poa annua L.” value ([5]; 1 g of a.i./ha) was 40% and 50%, the “Herbicidal action in [%] 28 DAT against Poa annua L.” value ([5]; 1 g of a.i./ha) was 15% and 20% and the “Herbicidal action in [%] 28 DAT against Poa annua” value ([5]; 1 g of a.i./ha, post-emergence) was 30%. The “Herbicidal action in [%] 14 DAT against Poa annua L.” value ([5]; 4 g of a.i./ha) was 85%, the “Herbicidal action in [%] 28 DAT against Poa annua L.” value ([5]; 4 g of a.i./ha) was 80% and the Herbicidal action ([5]; 14 DAT, 1 g a.i./ha) was 50%. The “Herbicidal action against Poa annua L.” value ([5]; 14 DAT, 1 g of a.i./ha) was 40%, the Herbicidal action ([5]; 14 DAT, 4 g a.i./ha) was 85% and the “Herbicidal action against Poa annua L.” value ([5]; 14 DAT, 16 g of a.i./ha) was 85%. For the same compound, the “Herbicidal action 28 DAT against Poa annua L.” value ([5]; 16 g of a.i./ha) was 40%, the “Herbicidal action in [%] 14 DAT against Poa annua L.” value ([5]; 16 g of a.i./ha) was 85% and the Herbicidal action ([5]; 28 DAT, 1 g a.i./ha) was 20%. The “Herbicidal action against Poa annua L.” value ([5]; 28 DAT, 1 g of a.i./ha) was 15%, the Herbicidal action ([5]; 28 DAT, 4 g a.i./ha) was 80% and the Herbicidal action ([5]; 28 DAT, 16 g a.i./ha) was 85%. For the same compound, the “Herbicidal action against Poa annua L.” value ([5]; 28 DAT, 16 g of a.i./ha) was 40%, the Herbicidal action ([5]; 28 DAT, 50 g a.i./ha) was 0% and the “Herbicidal action in [%] 14 DAT against Poa annua L.” value ([5]; post-emergence, 14 DAT, 1 g of a.i./ha) was 50%. The “Herbicidal action in [%] 14 DAT against Poa annua L.” value ([5]; post-emergence, 14 DAT, 4 g of a.i./ha) was 85%, the “Herbicidal action in [%] 14 DAT against Poa annua L.” value ([5]; post-emergence, 14 DAT, 16 g of a.i./ha) was 93% and the “Herbicidal action in [%] 28 DAT against Poa annua L.” value ([5]; post-emergence, 28 DAT, 1 g of a.i./ha) was 20%. For the same compound, the “Herbicidal action in [%] 28 DAT against Poa annua L.” value ([5]; post-emergence, 28 DAT, 4 g of a.i./ha) was 80%, the “Herbicidal action in [%] 28 DAT against Poa annua L.” value ([5]; post-emergence, 28 DAT, 16 g of a.i./ha) was 85% and the “Herbicidal action against Lolium rigidum” value ([6]; 14 DAT, 1 g of a.i./ha) was 35%. The “Herbicidal action against Lolium rigidum” value ([6]; 28 DAT, 1 g of a.i./ha) was 15%, the “Herbicidal action against Lolium rigidum” value ([6]; 28 DAT, 4 g of a.i./ha) was 50% and the “Herbicidal action against Phalaris minor” value ([7]; 14 DAT, 1 g of a.i./ha) was 10%. The “Herbicidal action against Phalaris minor” value ([7]; 14 DAT, 4 g of a.i./ha) was 90%, the “Herbicidal action against Phalaris minor” value ([7]; 14 DAT, 16 g of a.i./ha) was 85% and the “Herbicidal action against Phalaris minor” value ([7]; 28 DAT, 1 g of a.i./ha) was 0%. For the same compound, the “Herbicidal action against Phalaris minor” value ([7]; 28 DAT, 4 g of a.i./ha) was 70%, the “Herbicidal action against Phalaris minor” value ([7]; 28 DAT, 16 g of a.i./ha) was 40% and the “Herbicidal action 27 DAT [%] against Chenopodium album” value ([8]; 100 g of a.i./ha) was 85%. For the same compound, the “Herbicidal action 27 DAT against Chenopodium album” value ([8]; g of a.i./ha: 180, 100, 100 + 180) was 85%, the “Herbicidal action in [%] 14 DAT against Alopecurus myosuroides” value ([9]; 1 g of a.i./ha) was 15% and 30% and the “Herbicidal action in [%] 28 DAT against Alopecurus myosuroides” value ([9]; 1 g of a.i./ha) was 15% and 10%. The “Herbicidal action in [%] 14 DAT against Alopecurus myosuroides” value ([9]; 1 g of a.i./ha, second 14 DAT block) was 35%, the “Herbicidal action in [%] 14 DAT against Alopecurus myosuroides” value ([9]; 4 g of a.i./ha) was 90% and 75% and the “Herbicidal action in [%] 28 DAT against Alopecurus myosuroides” value ([9]; 4 g of a.i./ha) was 50% and 60%. The “Herbicidal action in [%] 28 DAT against Alopecurus myosuroides” value ([9]; 16 g of a.i./ha) was 90%, the “Herbicidal action 21 DAT against Pharbitis purpurea” value ([10]; 5 g of a.i./ha) was 80% and the “Herbicidal action 21 DAT [%] against Pharbitis purpurea” value (from here on “Herbicidal action 21 DAT [%]”) ([10]; 5 g of a.i./ha) was 80%. The “Herbicidal action 21 DAT [%]” value ([10]; 21 DAT, 5 g of a.i./ha) was 85%, the “Herbicidal action 21 DAT [%]” value ([10]; 21 DAT, 15 g of a.i./ha) was 85% and the “Herbicidal action 14 DAT against Galium aparine” value ([11]; 1 g of a.i./ha) was 40%. For the same compound, the “Herbicidal action 28 DAT against Galium aparine” value ([11]; 1 g of a.i./ha) was 15%, the “Herbicidal action in [%] 14 DAT against Galium aparine” value ([11]; 1 g of a.i./ha) was 40% and the “Herbicidal action in [%] 28 DAT against Galium aparine” value ([11]; 1 g of a.i./ha) was 15%. The “Herbicidal action in [%] 28 DAT against Galium aparine” value ([11]; 4 g of a.i./ha) was 65%, the “Herbicidal action in [%] 28 DAT against Galium aparine” value ([11]; 4 g of a.i./ha, post-emergence) was 70% and the “Herbicidal action against Galium aparine” value ([11]; 14 DAT, 1 g of a.i./ha) was 40%. The “Herbicidal action 28 DAT against Galium aparine” value ([11]; 16 g of a.i./ha) was 75%, the “Herbicidal action in [%] 28 DAT against Galium aparine” value ([11]; 16 g of a.i./ha) was 75% and the “Herbicidal action in [%] 28 DAT against Galium aparine” value ([11]; 16 g of a.i./ha, post-emergence) was 80%. For the same compound, the “Herbicidal action against Galium aparine” value ([11]; 28 DAT, 1 g of a.i./ha) was 15%, the “Herbicidal action 14 DAT against Galium aparine” value ([11]; (Z61) post-emergence, g of a.i./ha: 1, 270, 90, 30, 1 + 270, 1 + 90, 1 + 30) was 40% and the “Herbicidal action 43 DAT [%] against Viola arvensis” value [12] was 50%. For the same compound, the “Herbicidal action against Alopecurus myosuroides” value ([13]; 14 DAT, 1 g of a.i./ha) was 15%, the “Herbicidal action against Alopecurus myosuroides” value ([13]; 14 DAT, 4 g of a.i./ha) was 90% and the “Herbicidal action against Alopecurus myosuroides” value ([13]; 28 DAT, 1 g of a.i./ha) was 15%. The “Herbicidal action against Alopecurus myosuroides” value ([13]; 28 DAT, 4 g of a.i./ha) was 50%, the “Herbicidal action 37 DAT [%] against Echinochloa crus-galli” value [14] was 93% and the Herbicidal action ([15]; 14 DAT, 1 g a.i./ha) was 40%. The Herbicidal action ([15]; 28 DAT, 1 g a.i./ha) was 10%, the Herbicidal action ([15]; 28 DAT, 4 g a.i./ha) was 70% and the Herbicidal action [16] was 30%.
